The target of experiment [1] is EGFR wildtype (WT) (Homo sapiens, UniProt P00533). The experiment is described as follows: Biochemical EGFR kinase assay (Lance Ultra TR-FRET), wildtype. The method, boiled down:
(§1)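 Enzyme reactions lasted 1 hour at room temperature with test compounds between 0.003 and 10 μM, followed by 10 mM EDTA quench.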
On the technique in general: TR-FRET usually uses a lanthanide donor and a delayed reading to cut background.

For experiment [2], the target named is EGFR L858R/C797S (Homo sapiens, UniProt P00533, C797S/L858R). The experiment is described as follows: Biochemical EGFR kinase assay (Lance Ultra TR-FRET), double mutant L858R/C797S. The method, boiled down:
as §1

Experiment [3] addresses EGFR L858R/T790M/C797S (Homo sapiens, UniProt P00533, C797S/L858R/T790M). The experiment in a line: Biochemical EGFR kinase assay (Lance Ultra TR-FRET), triple mutant L858R/T790M/C797S. The method, boiled down:
as §1

In experiment [4] the target is EGFR del19/T790M/C797S (Homo sapiens, UniProt P00533, C797S/DEL746-750/T790M). The experiment in a line: Biochemical EGFR kinase assay (Lance Ultra TR-FRET), triple mutant del19/T790M/C797S. Put shortly:
as §1

Experiment [5] addresses EGFR del19/C797S (Homo sapiens, UniProt P00533, C797S/DEL746-750). The experiment in a line: Biochemical EGFR kinase assay (Lance Ultra TR-FRET), double mutant del19/C797S. Put shortly: as §1
The mark [6] stands for this setting: Km ATP, read-out: IC50 WT (nM) Km ATP.
Setting [7] is: Km ATP, read-out: IC50 L858R/C797S (nM) Km ATP.
The mark [8] stands for this setting: Km ATP, read-out: IC50 L858R/T790M/C797S (nM) Km ATP.
The mark [9] stands for this setting: Km ATP, read-out: IC50 del19/T790M/C797S (nM) Km ATP.
The mark [10] stands for this setting: Km ATP, read-out: IC50 del19/C797S (nM) Km ATP.
Setting [11] is: IC50 WT (nM) 100 μM ATP, 100 μM ATP.
The mark [12] stands for this setting: IC50 L858R/T790M/C797S (nM) 100 μM ATP, 100 μM ATP.
The mark [13] stands for this setting: IC50 del19/T790M/C797S (nM) 100 μM ATP, 100 μM ATP.
Where [14] appears, read: IC50 del19/C797S (nM) 100 μM ATP, 100 μM ATP.
The mark [15] stands for this setting: IC50 L858R/C797S (nM) 100 μM ATP, 100 μM ATP.

Where two headings read alike, the source gives them in different places.

Chain of EGFR L858R/T790M/C797S (P00533 25-1210 T790M/C797S/L858R): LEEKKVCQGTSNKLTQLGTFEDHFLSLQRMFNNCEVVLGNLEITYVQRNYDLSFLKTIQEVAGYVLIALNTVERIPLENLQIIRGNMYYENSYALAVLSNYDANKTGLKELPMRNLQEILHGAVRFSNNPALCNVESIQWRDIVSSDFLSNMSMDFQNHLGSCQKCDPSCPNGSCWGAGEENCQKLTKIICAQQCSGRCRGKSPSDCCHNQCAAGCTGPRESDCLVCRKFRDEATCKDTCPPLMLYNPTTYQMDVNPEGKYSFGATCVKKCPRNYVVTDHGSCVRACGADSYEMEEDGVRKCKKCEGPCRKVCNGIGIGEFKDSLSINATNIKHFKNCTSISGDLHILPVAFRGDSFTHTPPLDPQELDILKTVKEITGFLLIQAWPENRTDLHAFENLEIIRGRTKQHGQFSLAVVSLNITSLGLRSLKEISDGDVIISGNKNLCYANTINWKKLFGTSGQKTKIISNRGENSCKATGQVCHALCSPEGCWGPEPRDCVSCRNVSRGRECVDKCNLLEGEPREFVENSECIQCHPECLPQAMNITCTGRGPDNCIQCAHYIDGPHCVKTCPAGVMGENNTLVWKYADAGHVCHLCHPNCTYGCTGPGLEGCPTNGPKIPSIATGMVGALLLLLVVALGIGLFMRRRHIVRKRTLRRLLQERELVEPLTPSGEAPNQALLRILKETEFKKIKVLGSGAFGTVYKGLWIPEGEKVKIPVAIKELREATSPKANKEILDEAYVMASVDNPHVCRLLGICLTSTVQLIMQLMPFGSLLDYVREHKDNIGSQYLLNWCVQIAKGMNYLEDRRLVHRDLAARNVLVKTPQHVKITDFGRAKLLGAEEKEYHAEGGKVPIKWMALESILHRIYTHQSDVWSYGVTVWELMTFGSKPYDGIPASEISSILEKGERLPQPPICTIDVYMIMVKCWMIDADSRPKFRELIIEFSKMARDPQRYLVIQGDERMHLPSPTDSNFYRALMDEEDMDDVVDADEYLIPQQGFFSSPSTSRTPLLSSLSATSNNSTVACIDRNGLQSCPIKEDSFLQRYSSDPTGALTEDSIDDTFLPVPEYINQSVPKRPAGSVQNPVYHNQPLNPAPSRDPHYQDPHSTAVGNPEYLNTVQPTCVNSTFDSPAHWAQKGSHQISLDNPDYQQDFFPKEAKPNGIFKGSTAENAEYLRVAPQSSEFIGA
Chain of EGFR L858R/C797S (P00533 25-1210 C797S/L858R): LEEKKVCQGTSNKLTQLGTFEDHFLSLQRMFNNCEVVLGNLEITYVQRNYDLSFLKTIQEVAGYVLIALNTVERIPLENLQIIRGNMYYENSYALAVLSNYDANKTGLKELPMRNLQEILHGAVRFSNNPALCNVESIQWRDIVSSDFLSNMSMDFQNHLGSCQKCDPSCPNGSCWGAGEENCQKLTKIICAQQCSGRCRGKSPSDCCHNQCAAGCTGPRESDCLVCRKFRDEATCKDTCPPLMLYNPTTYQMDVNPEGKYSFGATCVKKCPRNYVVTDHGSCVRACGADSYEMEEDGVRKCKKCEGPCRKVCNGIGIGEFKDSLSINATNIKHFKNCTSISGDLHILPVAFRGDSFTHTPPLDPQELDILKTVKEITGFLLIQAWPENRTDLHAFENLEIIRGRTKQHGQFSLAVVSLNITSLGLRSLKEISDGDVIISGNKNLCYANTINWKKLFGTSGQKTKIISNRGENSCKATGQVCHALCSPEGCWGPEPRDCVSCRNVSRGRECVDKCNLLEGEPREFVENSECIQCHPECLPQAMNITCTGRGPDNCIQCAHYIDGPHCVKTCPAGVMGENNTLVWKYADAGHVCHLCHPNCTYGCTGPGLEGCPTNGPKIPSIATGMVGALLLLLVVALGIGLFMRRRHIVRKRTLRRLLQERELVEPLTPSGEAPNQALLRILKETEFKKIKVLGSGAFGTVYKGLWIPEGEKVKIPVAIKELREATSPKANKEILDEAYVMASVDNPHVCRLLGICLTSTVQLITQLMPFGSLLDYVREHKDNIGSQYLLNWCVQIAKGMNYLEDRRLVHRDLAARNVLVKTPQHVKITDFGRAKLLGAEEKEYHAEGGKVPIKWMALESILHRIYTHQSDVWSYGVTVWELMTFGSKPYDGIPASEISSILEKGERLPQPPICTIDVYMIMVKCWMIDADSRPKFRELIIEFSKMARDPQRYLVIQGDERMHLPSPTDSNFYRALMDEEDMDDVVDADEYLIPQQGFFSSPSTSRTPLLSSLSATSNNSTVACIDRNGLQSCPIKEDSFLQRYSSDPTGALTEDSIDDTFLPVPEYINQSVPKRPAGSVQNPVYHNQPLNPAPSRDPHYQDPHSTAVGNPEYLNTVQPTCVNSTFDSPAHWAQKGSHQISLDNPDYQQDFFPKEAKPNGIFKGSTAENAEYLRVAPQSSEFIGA
Chain of EGFR del19/T790M/C797S (P00533 with tags, fused parts or gaps DEL746-750/T790M/C797S): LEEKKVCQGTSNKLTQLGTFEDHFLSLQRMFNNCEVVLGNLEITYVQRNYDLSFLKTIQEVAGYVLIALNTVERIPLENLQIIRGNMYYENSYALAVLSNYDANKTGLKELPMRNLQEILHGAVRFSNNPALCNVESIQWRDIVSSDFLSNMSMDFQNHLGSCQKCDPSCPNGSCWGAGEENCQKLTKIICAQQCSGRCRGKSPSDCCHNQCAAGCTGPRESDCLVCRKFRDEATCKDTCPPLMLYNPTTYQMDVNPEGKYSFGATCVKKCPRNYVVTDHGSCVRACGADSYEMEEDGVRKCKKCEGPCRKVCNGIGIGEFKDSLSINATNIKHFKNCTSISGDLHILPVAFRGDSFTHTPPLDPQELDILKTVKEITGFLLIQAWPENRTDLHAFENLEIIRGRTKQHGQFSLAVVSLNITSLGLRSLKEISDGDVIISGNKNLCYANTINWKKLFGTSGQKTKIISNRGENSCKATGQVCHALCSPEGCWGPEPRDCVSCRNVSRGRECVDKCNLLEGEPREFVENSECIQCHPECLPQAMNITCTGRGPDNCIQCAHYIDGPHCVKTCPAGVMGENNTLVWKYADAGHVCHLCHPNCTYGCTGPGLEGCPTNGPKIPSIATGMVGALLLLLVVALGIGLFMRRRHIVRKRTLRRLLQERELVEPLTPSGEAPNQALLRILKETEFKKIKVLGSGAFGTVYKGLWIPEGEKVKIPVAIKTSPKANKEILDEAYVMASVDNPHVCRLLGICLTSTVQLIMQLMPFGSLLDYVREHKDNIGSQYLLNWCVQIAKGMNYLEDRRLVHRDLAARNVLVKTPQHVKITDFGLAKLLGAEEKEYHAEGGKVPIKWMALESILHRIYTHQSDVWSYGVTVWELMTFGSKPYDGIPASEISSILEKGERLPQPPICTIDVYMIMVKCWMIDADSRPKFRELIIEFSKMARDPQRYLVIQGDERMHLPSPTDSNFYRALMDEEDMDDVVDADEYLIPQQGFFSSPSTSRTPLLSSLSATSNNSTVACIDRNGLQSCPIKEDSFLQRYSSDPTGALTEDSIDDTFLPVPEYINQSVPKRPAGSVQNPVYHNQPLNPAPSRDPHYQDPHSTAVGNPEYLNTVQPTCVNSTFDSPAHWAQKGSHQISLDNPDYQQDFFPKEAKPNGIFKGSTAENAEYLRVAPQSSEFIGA
Chain of EGFR wildtype (WT) (P00533 25-1210): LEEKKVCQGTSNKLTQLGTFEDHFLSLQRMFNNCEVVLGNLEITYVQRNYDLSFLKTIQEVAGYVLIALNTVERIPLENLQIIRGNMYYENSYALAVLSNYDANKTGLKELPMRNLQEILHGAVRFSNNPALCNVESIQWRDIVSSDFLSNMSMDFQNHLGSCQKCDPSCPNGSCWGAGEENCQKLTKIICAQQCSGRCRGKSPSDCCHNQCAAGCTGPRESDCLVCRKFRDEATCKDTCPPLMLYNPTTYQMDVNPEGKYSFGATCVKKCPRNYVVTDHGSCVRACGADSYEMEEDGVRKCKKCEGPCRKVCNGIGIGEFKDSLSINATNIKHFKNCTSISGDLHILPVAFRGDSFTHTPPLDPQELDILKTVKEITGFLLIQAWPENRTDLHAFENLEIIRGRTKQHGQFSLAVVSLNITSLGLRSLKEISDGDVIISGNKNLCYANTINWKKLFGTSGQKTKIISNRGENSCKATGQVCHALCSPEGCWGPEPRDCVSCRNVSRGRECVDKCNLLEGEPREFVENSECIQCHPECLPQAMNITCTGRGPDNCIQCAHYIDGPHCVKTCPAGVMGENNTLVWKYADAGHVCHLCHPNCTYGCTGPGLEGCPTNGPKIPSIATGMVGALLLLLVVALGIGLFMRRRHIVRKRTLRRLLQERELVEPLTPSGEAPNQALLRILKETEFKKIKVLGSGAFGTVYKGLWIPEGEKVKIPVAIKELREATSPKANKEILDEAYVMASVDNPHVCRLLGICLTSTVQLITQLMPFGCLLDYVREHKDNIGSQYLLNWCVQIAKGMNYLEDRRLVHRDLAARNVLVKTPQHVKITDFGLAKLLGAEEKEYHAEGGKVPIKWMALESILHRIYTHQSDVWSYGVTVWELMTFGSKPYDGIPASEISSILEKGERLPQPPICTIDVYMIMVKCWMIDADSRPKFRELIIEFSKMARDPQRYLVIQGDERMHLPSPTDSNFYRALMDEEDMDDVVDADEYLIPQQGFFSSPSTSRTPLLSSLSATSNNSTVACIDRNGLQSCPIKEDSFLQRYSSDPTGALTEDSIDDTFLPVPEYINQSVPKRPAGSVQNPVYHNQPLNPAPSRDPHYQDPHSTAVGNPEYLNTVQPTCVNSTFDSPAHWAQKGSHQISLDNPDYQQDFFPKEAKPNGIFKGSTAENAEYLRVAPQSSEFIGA

`CCC(C)Nc1cc(Nc2ccnc(-c3cnn(S(=O)(=O)C4CC4)c3)n2)ncc1-c1ccn(C(F)F)n1` (centres unmarked) [Example 210, N^4-(sec-Butyl)-N^2-(2-(1-(cyclopropylsulfonyl)-1H-pyrazol-4-yl)pyrimidin-4-yl)-5-(1-(difluoromethyl)-1H-pyrazol-3-yl)pyridine-2,4-diamine]: the IC50 in experiment [1] (setting [6]) was found to be 90.5 nM; in experiment [2] (setting [7]) it was 6.5 nM; in experiment [3] (setting [8]) it was 1.3 nM; in experiment [4] (setting [9]) it was 1.7 nM; in experiment [5] (setting [10]), 70.5 nM.

Take `CN(C)C[C@H]1CC[C@@H](Nc2cc(Nc3ccnc(-c4cnn(S(=O)(=O)C5CC5)c4)n3)ncc2-c2ccn(C)n2)CC1` [Example 226, N^2-(2-(1-(Cyclopropylsulfonyl)-1H-pyrazol-4-yl)pyrimidin-4-yl)-N^4-((1s,4s)-4-((dimethylamino)methyl)cyclohexyl)-5-(1-methyl-1H-pyrazol-3-yl)pyridine-2,4-diamine]: the IC50 in experiment [1] (setting [11]) worked out at 96.9 nM; in experiment [1] (setting [6]) it was 0.2 nM; in experiment [2] (setting [7]) it was 0.1 nM; in experiment [3] (setting [12]), 0.1 nM; in experiment [3] (setting [8]), 0.1 nM; in experiment [4] (setting [13]) it was 0.1 nM. Further, the IC50 was determined as 0.1 nM in experiment [4] (setting [9]), 0.2 nM in experiment [5] (setting [14]) and 0.1 nM in experiment [5] (setting [10]).

As for `COCn1ccc(-c2cnc(Nc3ccnc(-c4cnn(S(=O)(=O)C5CC5)c4)n3)cc2N[C@H]2CC[C@@](C)(O)CC2)n1` [Example 294, (1s,4s)-4-((2-((2-(1-(Cyclopropylsulfonyl)-1H-pyrazol-4-yl)pyrimidin-4-yl)amino)-5-(1-(methoxymethyl)-1H-pyrazol-3-yl)pyridin-4-yl)amino)-1-methylcyclohexan-1-ol], the IC50 in experiment [1] (setting [6]) amounted to 0.9 nM; in experiment [2] (setting [7]), 0.1 nM; in experiment [3] (setting [8]) it was 0.2 nM; in experiment [4] (setting [9]), 0.4 nM; in experiment [5] (setting [10]), 1 nM.

Take `O=S(=O)(C1CC1)n1cc(-c2nccc(Nc3cc(N[C@H]4CC[C@@H](NCCF)CC4)c(-c4ccn(CC(F)F)n4)cn3)n2)cn1` [Example 242, N^2-(2-(1-(Cyclopropylsulfonyl)-1H-pyrazol-4-yl)pyrimidin-4-yl)-5-(1-(2,2-difluoroethyl)-1H-pyrazol-3-yl)-N^4-((1s,4s)-4-((2-fluoroethyl)amino)cyclohexyl)pyridine-2,4-diamine]: the IC50 in experiment [1] (setting [11]) was determined as 6320 nM; in experiment [1] (setting [6]), 6 nM; in experiment [2] (setting [15]), 20.9 nM; in experiment [2] (setting [7]), 1.2 nM; in experiment [3] (setting [12]), 0.2 nM; in experiment [3] (setting [8]), 0.1 nM. In addition, the IC50 in experiment [4] (setting [13]) is 0.2 nM; in experiment [4] (setting [9]) it was 0.1 nM; in experiment [5] (setting [14]), 0.8 nM; in experiment [5] (setting [10]), 0.4 nM.

As for `Cn1ccc(-c2cnc(Nc3ccnc(-c4cnn(S(=O)(=O)C5CC5)c4)n3)cc2NC[C@H]2CC[C@](C)(O)CC2)n1` [Example 48, (1r,4r)-4-(((2-((2-(1-(Cyclopropylsulfonyl)-1H-pyrazol-4-yl)pyrimidin-4-yl)amino)-5-(1-methyl-1H-pyrazol-3-yl)pyridin-4-yl)amino)methyl)-1-methylcyclohexan-1-ol], the IC50 in experiment [1] (setting [11]) came out at 9600 nM; in experiment [1] (setting [6]) it was 5.8 nM; in experiment [2] (setting [15]), 6.1 nM; in experiment [2] (setting [7]) it was 1.9 nM; in experiment [3] (setting [12]), 0.5 nM; in experiment [3] (setting [8]), 0.2 nM. Moreover, the IC50 in experiment [4] (setting [13]) came out at 0.4 nM; in experiment [4] (setting [9]), 0.4 nM; in experiment [5] (setting [14]), 0.9 nM; in experiment [5] (setting [10]), 0.9 nM.

With `OCC[C@H]1CC[C@@H](Nc2cc(Nc3ccnc(-c4cnn(CC(F)F)c4)n3)ncc2-c2ccn(CC(F)(F)F)n2)CC1` [Example 338, 2-((1s,4s)-4-((2-((2-(1-(2,2-Difluoroethyl)-1H-pyrazol-4-yl)pyrimidin-4-yl)amino)-5-(1-(2,2,2-trifluoroethyl)-1H-pyrazol-3-yl)pyridin-4-yl)amino)cyclohexyl)ethan-1-ol], the IC50 was 45.1 nM in experiment [1] (Km ATP, read-out: IC50 WT, Km ATP); 3.9 nM in experiment [2] (Km ATP, read-out: IC50 L858R/C797S, Km ATP); 0.4 nM in experiment [3] (Km ATP, read-out: IC50 L858R/T790M/C797S, Km ATP); 0.7 nM in experiment [4] (Km ATP, read-out: IC50 del19/T790M/C797S, Km ATP); 13.2 nM in experiment [5] (Km ATP, read-out: IC50 del19/C797S, Km ATP).

The values are drawn from US12258327B2, “5-membered heteroaryl-containing aminopyridine compounds as EGFR inhibitors” (YUHAN CORPORATION, priority 2021, dated 2025).
